The target of this assay is hCB1R (Homo sapiens, UniProt P21554). Put plainly: Binding to the CB1 receptor ([3H]-SR141716A displacement). Here is the method:
Binding to the CB1 Receptor:
Test compounds: The compounds (3 μl, 10 mM, 100% DMSO), pipetted into 96-well PP microtiter plates, were diluted with 27 μl of 100% DMSO (dimethyl sulfoxide). Proceeding from this solution, further 3-fold dilution steps were undertaken by transferring 10 μl in each case to a new PP microtiter plate and adding a further 20 μl of 100% DMSO. In each case 6 μl of these solutions were transferred into new 96-well PP microtiter plates and made up with 144 μl of assay buffer. The end concentrations ranged from 10 μM to 0.005 μM. Negative control: AM 251, dissolved in assay buffer with 1% DMSO, was added to the dilution series in the microtiter plates as a control. The end concentration was 1 μM. Blank control: assay buffer with 1% DMSO was added to the dilution series of the microtiter plates as a blank control.
Summary of the Assay Parameters:
High control: ^3H binding without addition of the compound
Low control: ^3H binding in the presence of 1 μM AM 251
The values were calculated using the corrected raw data.
The values reported were obtained as average values of a double determination. The IC50 values were calculated from the measurements with the program Xlfit, formula 205. Ki values were obtained from the IC50 and Kd values utilizing the Cheng-Prusoff equation: […]
Literature: Cheng, Y.-C., and Prusoff, W. H. (1973) Biochem. Pharmacol 22, 3099-3108

Setting [1] is: CHO-K1/cannabinoid CB1 protein 2 μg/well, [3H]-SR141716A 0.5 nM, Ki from IC50 by Cheng-Prusoff, average of double determination, read-out: hCB1R, binding Ki.

Structures are written as SMILES. Where two headings read alike, the source gives them in different places.

Sequence of hCB1R (P21554 whole entry): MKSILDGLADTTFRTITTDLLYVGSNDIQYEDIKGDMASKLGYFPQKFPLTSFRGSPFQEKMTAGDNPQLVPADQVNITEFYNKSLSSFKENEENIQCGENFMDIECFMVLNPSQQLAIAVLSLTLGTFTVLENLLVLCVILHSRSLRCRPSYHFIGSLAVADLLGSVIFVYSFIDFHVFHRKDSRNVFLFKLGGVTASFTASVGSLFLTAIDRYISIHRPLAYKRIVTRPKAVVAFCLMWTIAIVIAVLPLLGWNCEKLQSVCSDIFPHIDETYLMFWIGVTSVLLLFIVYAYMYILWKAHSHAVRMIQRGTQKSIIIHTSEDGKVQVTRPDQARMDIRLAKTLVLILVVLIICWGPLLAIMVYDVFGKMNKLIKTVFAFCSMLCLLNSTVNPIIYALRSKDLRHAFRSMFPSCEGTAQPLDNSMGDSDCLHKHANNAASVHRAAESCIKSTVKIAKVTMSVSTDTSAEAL

Turning to `CC1(C)C(=O)N(c2ccc(C#N)nc2)C(=O)N1Cc1ccccc1Nc1ccc(F)cc1F` [Example 70, 5-{3-[2-(2,4-difluorophenylamino)benzyl]-4,4-dimethyl-2,5-dioxoimidazolidin-1-yl}pyridine-2-carbonitrile], the Ki under setting [1] came out at 27 nM. `COC(=O)c1ccc(Nc2cc(OC)ccc2CN2C(=O)N(c3ccc(C#N)c(C(F)(F)F)c3)C(=O)C2(C)C)cc1` [Example 110, Methyl 4-{2-[3-(4-cyano-3-trifluoromethylphenyl)-5,5-dimethyl-2,4-dioxoimidazolidin-1-ylmethyl]-5-methoxyphenylamino}benzoate]: the Ki is 5 nM. Same read-out and setting: the same measure for `COC(=O)c1ccc(Nc2cc(F)ccc2CN2C(=O)N(c3ccc(C#N)c(C(F)(F)F)c3)C(=O)C2(C)C)cc1` [Example 111, Methyl 4-{2-[3-(4-cyano-3-trifluoromethylphenyl)-5,5-dimethyl-2,4-dioxoimidazolidin-1-ylmethyl]-5-fluorophenylamino}benzoate]: 1 nM; for `CC1(C)C(=O)N(c2ccc(C#N)c(C(F)(F)F)c2)C(=O)N1Cc1ccccc1Nc1ccc([N+](=O)[O-])cc1` [Example 112, 4-{4,4-dimethyl-3-[2-(4-nitrophenylamino)benzyl]-2,5-dioxoimidazolidin-1-yl}-2-trifluoromethylbenzonitrile]: 1 nM; for `CC1(C)C(=O)N(c2ccc(C#N)c(C(F)(F)F)c2)C(=O)N1Cc1ccccc1Nc1ccc(C=O)cc1` [Example 120, 4-{3-[2-(4-formylphenylamino)benzyl]-4,4-dimethyl-2,5-dioxoimidazolidin-1-yl}-2-trifluoromethylbenzonitrile]: 5 nM. Compound `CC(C)(C)OC(=O)c1ccc(Nc2cc(C#N)ccc2CN2C(=O)N(c3ccc(C#N)c(C(F)(F)F)c3)C(=O)C2(C)C)cc1` [Example 126, tert-Butyl 4-{5-cyano-2-[3-(4-cyano-3-trifluoromethylphenyl)-5,5-dimethyl-2,4-dioxoimidazolidin-1-ylmethyl]phenylamino}benzoate] registered a Ki of 23 nM. Turning to `CC1(C)C(=O)N(c2ccc(C#N)c(C(F)(F)F)c2)C(=O)N1Cc1ccccc1Nc1ccc(Oc2ccccc2)cc1` [Example 128, 4-{4,4-dimethyl-2,5-dioxo-3-[2-(4-phenoxyphenylamino)benzyl]-imidazolidin-1-yl}-2-trifluoromethylbenzonitrile], the Ki was determined as 2 nM. On the same count and under the same terms, the same measure for `COC(=O)c1cc(Nc2ccccc2CN2C(=O)N(c3ccc(C#N)c(C(F)(F)F)c3)C(=O)C2(C)C)ccc1OC` [Example 129, methyl 5-{2-[3-(4-cyano-3-trifluoromethylphenyl)-5,5-dimethyl-2,4-dioxoimidazolidin-1-ylmethyl]phenylamino}-2-methoxybenzoate]: 10 nM; for `CC1(C)C(=O)N(c2ccc(C#N)c(C(F)(F)F)c2)C(=O)N1Cc1ccc(C#N)cc1Nc1ccc(C(=O)O)cc1` [Example 132, 4-{5-cyano-2-[3-(4-cyano-3-trifluoromethylphenyl)-5,5-dimethyl-2,4-dioxoimidazolidin-1-ylmethyl]phenylamino}benzoic acid]: 6 nM; for `CC1(C)C(=O)N(c2ccc(F)c(C(F)(F)F)c2)C(=O)N1Cc1ccccc1Nc1ccc(C#N)cc1` [Example 134, 4-{2-[3-(4-fluoro-3-trifluoromethylphenyl)-5,5-dimethyl-2,4-dioxoimidazolidin-1-ylmethyl]phenylamino}benzonitrile]: 4 nM. The same measure, in the same setting: as for `CC1(C)C(=O)N(c2ccc(C#N)c(C(F)(F)F)c2)C(=O)N1Cc1ccccc1Nc1ccc(C(=O)NCCO)cc1` [Example 149, 4-{2-[3-(4-cyano-3-trifluoromethylphenyl)-5,5-dimethyl-2,4-dioxoimidazolidin-1-ylmethyl]phenylamino}-N-(2-hydroxyethyl)benzamide], the figure is 6 nM.

As for `CCNS(=O)(=O)c1ccc(Nc2ccccc2CN2C(=O)N(c3ccc(C#N)c(C(F)(F)F)c3)C(=O)C2(C)C)cc1` [Example 151, 4-{2-[3-(4-cyano-3-trifluoromethylphenyl)-5,5-dimethyl-2,4-dioxoimidazolidin-1-ylmethyl]phenylamino}-N-ethylbenzenesulfonamide], the Ki under setting [1] was found to be 155 nM. In turn, `CC1(C)C(=O)N(c2ccc(C#N)c(C(F)(F)F)c2)C(=O)N1Cc1ccccc1Nc1cccc(S(N)(=O)=O)c1` [Example 153, 3-{2-[3-(4-Cyano-3-trifluoromethylphenyl)-5,5-dimethyl-2,4-dioxoimidazolidin-1-ylmethyl]phenylamino}benzenesulfonamide] displayed a Ki of 20 nM. Compound `COC(=O)c1ccc(Nc2cc(F)ccc2CN2C(=O)N(c3ccc(C#N)c(C(C)(C)C)c3)C(=O)C2(C)C)cc1` [Example 157, methyl 4-{2-[3-(3-tert-butyl-4-cyanophenyl)-5,5-dimethyl-2,4-dioxoimidazolidin-1-ylmethyl]-5-fluorophenylamino}benzoate] returned a Ki of 5 nM. `COC(=O)c1ccc(Nc2cc(F)ccc2CN2C(=O)N(c3ccc(C#N)c(C)c3)C(=O)C2(C)C)cc1` [Example 160, Methyl 4-{2-[3-(4-cyano-3-methylphenyl)-5,5-dimethyl-2,4-dioxoimidazolidin-1-ylmethyl]-5-fluorophenylamino}benzoate]: the Ki was found to be 3 nM. On the same count and under the same terms, the same measure for `CC1(C)C(=O)N(c2ccc(C#N)c(C(F)(F)F)c2)C(=O)N1Cc1ccccc1Nc1ccc(C(=O)NCC(N)=O)cc1` [Example 161, N-carbamoylmethyl-4-{2-[3-(4-cyano-3-trifluoromethylphenyl)-5,5-dimethyl-2,4-dioxoimidazolidin-1-ylmethyl]phenylamino}benzamide]: 8 nM; for `CCOC(=O)c1ccc(Nc2cc(C(F)(F)F)ccc2CN2C(=O)N(c3ccc(C#N)c(C(F)(F)F)c3)C(=O)C2(C)C)cc1` [Example 165, ethyl 4-{2-[3-(4-cyano-3-trifluoromethylphenyl)-5,5-dimethyl-2,4-dioxoimidazolidin-1-ylmethyl]-5-trifluoromethylphenylamino}benzoate]: 16 nM. For the compound `COC(=O)c1ccc(Nc2cc(F)ccc2CN2C(=O)N(c3ccnc(C(C)(C)C)c3)C(=O)C2(C)C)cc1` [Example 167, Methyl 4-{2-[3-(2-tert-butylpyridin-4-yl)-5,5-dimethyl-2,4-dioxoimidazolidin-1-ylmethyl]-5-fluorophenylamino}benzoate], the Ki under setting [1] was 7 nM. Consider `CC1(C)C(=O)N(c2ccc(F)c(C(F)(F)F)c2)C(=O)N1Cc1ccc(F)cc1Nc1ccc(C(=O)NC[C@H](O)[C@@H](O)[C@H](O)[C@H](O)CO)cc1` [Example 170, 4-{5-Fluoro-2-[3-(4-fluoro-3-trifluoromethylphenyl)-5,5-dimethyl-2,4-dioxoimidazolidin-1-ylmethyl]phenylamino}-N-((2S,3R,4R,5R)-2,3,4,5,6-pentahydroxyhexyl)benzamide], for which the Ki under setting [1] turned out to be 113 nM.

With `CC1(C)C(=O)N(c2ccc(F)c(C(F)(F)F)c2)C(=O)N1Cc1ccc(F)cc1Nc1ccc(C(=O)N2CCC(O)CC2)cc1` [Example 171, 1-{4-Fluoro-2-[4-(4-hydroxypiperidine-1-carbonyl)phenylamino]benzyl}-3-(4-fluoro-3-trifluoromethylphenyl)-5,5-dimethylimidazolidine-2,4-dione], the Ki under setting [1] was 120 nM. The same measure, in the same setting: the same measure for `CC1(C)C(=O)N(c2ccc(F)c(C(F)(F)F)c2)C(=O)N1Cc1ccc(F)cc1Nc1ccc(C(=O)N2CCNCC2)cc1` [Example 172, 1-{4-Fluoro-2-[4-(piperazine-1-carbonyl)phenylamino]benzyl}-3-(4-fluoro-3-trifluoromethylphenyl)-5,5-dimethylimidazolidine-2,4-dione]: 8 nM. With `CC1(C)C(=O)N(c2ccc(C#N)c(C(F)(F)F)c2)C(=O)N1Cc1ccccc1Nc1ccc(C(=O)NCCCS(C)(=O)=O)cc1` [Example 173, 4-{2-[3-(4-Cyano-3-trifluoromethylphenyl)-5,5-dimethyl-2,4-dioxoimidazolidin-1-ylmethyl]phenylamino}-N-(3-methanesulfonylpropyl)benzamide], the Ki was found to be 34 nM.

As for `CC1(C)C(=O)N(c2ccc(C#N)c(C(F)(F)F)c2)C(=O)N1Cc1ccccc1Nc1ccc(C(=O)NN2CCCCC2)cc1` [Example 174, 4-{2-[3-(4-Cyano-3-trifluoromethylphenyl)-5,5-dimethyl-2,4-dioxoimidazolidin-1-ylmethyl]phenylamino}-N-piperidin-1-ylbenzamide], under setting [1], the Ki worked out at 144 nM.

In the case of `CC1(C)C(=O)N(c2ccc(C#N)c(C(F)(F)F)c2)C(=O)N1Cc1ccccc1Nc1ccc(N(S(C)(=O)=O)S(C)(=O)=O)cc1` [Example 176], the Ki under setting [1] turned out to be 130 nM. Regarding `COc1ccc(Nc2ccccc2CN2C(=O)N(c3ccc(C#N)c(C(F)(F)F)c3)C(=O)C2(C)C)nn1` [Example 179, 4-{3-[2-(6-methoxypyridazin-3-ylamino)benzyl]-4,4-dimethyl-2,5-dioxoimidazolidin-1-yl}-2-trifluoromethylbenzonitrile], the Ki came to 16 nM. As to `COC(=O)c1ccc(Nc2cc(F)ccc2CN2C(=O)N(c3ccc(C#N)c(-c4ccccc4)c3)C(=O)C2(C)C)cc1` [Example 223], the Ki under setting [1] is 4 nM.

For the origin of these results see US7759366B2 (Sanofi-Aventis, priority 2006, dated 2010).
